Among the test systems are 786-0; A549; COLO 205; HL-60; HT-29; NCI-H23; NCI-H460; OVCAR-5; SF-268; SF-295; SK-MEL-2; SK-OV-3; U-251; UACC-62; MCF7; MDA-MB-231; MDA-MB-435; PC-3.
Assay in all cases: inhibition of tumour cell growth, NCI panel, 48 h

SMILES strings stand for the structures.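 Method: 48-hour compound exposure of cells in 96-well plates, five concentrations, linear interpolation of endpoints. At the GI50, growth is halved.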 The source made the active and inactive calls. No stated cut-off is given here; in the data, active = GI50 up to about 1.1 µM and inactive = higher.

For `CCOC1c2cc(C(C)C)c(O)c(O)c2[C@@]23CCCC(C)(C)C2C1OC3=O` (some centres undefined), the GI50 is > 100 µM (inactive) in the assay with 786-0; 82.4 µM (inactive) with A549; > 100 µM (inactive) with COLO 205; 93.1 µM (inactive) in the assay on HL-60; > 100 µM (inactive) with HT-29; > 100 µM (inactive) with NCI-H23. Moreover, the GI50 in the assay on NCI-H460, in the assay with OVCAR-5, in the assay with SF-268, in the assay on SF-295, with SK-MEL-2 and in the assay on SK-OV-3 was > 100 µM (inactive) in each case. Also, the values for the GI50 with U-251 and with UACC-62 were > 100 µM (inactive) and 83.2 µM (inactive), respectively.

With `N#CCCN(c1ccc(/C=N/c2ccc(C(=O)O)cc2)cc1)S(=O)(=O)c1ccccc1`, the GI50 is > 100 µM (inactive) with 786-0; > 100 µM (inactive) in the assay on A549; > 100 µM (inactive) in the assay with COLO 205; 41.4 µM (inactive) in the assay on HL-60; > 100 µM (inactive) in the assay on HT-29; > 100 µM (inactive) with NCI-H23. The GI50 with NCI-H460, with OVCAR-5, in the assay on SF-268, with SF-295, in the assay with SK-MEL-2 and in the assay with SK-OV-3 was > 100 µM (inactive) in each case. Also, the GI50 with U-251 and in the assay with UACC-62 was > 100 µM (inactive) throughout.

In the case of `Cc1ccc(NC(=O)CC/C(CC(=O)c2ccc(F)cc2)=N\NC(=O)C(=O)NN)cc1C`, the GI50 with 786-0 was > 100 µM (inactive); with A549, > 100 µM (inactive); in the assay with COLO 205 it was > 100 µM (inactive); in the assay on HL-60 it was 41.5 µM (inactive); with HT-29, > 100 µM (inactive); in the assay on NCI-H23, > 100 µM (inactive). Also, the GI50 in the assay on NCI-H460, in the assay with OVCAR-5, in the assay on SF-268, with SF-295, with SK-MEL-2 and with SK-OV-3 was > 100 µM (inactive) throughout. The GI50 with U-251 and in the assay on UACC-62 was > 100 µM (inactive) in each case.

With `CC(C)C(=O)NC(=S)Nc1ccc([N+](=O)[O-])cc1C#N`, the GI50 in the assay with 786-0 is > 100 µM (inactive); in the assay on A549, > 100 µM (inactive); with COLO 205, 16.8 µM (inactive); in the assay with HL-60 it was > 100 µM (inactive); in the assay with HT-29, > 100 µM (inactive); in the assay on NCI-H23, > 100 µM (inactive). Besides, the GI50 in the assay on NCI-H460, in the assay on OVCAR-5, with SF-268, with SF-295, in the assay with SK-MEL-2 and in the assay on SK-OV-3 was > 100 µM (inactive) each time. Besides, the GI50 in the assay on U-251 and in the assay on UACC-62 was > 100 µM (inactive) throughout.

As for `N#CCC(=O)Nc1cccc(C(F)(F)F)c1`, the GI50 in the assay with 786-0, with A549, in the assay with COLO 205, with HL-60, in the assay with HT-29 and in the assay on NCI-H23 was > 100 µM (inactive) in each case. Further, the GI50 in the assay on NCI-H460, in the assay on OVCAR-5, in the assay on SF-268, in the assay with SF-295, with SK-MEL-2 and in the assay with SK-OV-3 was > 100 µM (inactive) throughout. For the same compound, the GI50 in the assay with U-251 and with UACC-62 was > 100 µM (inactive) in each case.

Consider `CN1CC[C@@H](c2c(O)cc(O)c3c(=O)cc(-c4ccccc4Cl)oc23)[C@@H](O)C1`, for which the GI50 with 786-0 was 0.0414 µM (active); in the assay with A549, 0.0543 µM (active); in the assay on COLO 205, 0.034 µM (active); with HL-60, 0.0211 µM (active); with HT-29 it was 0.0942 µM (active); in the assay with MCF7, 0.0239 µM (active). For the same compound, the GI50 with MDA-MB-231 was 0.0394 µM (active); with MDA-MB-435 it was 0.0332 µM (active); with NCI-H23, 0.0365 µM (active); in the assay with NCI-H460 it was 0.0352 µM (active); in the assay on OVCAR-5 it was 0.0384 µM (active); in the assay on PC-3, 0.0385 µM (active). The GI50 in the assay with SF-268 is 0.0348 µM (active); in the assay with SF-295, 0.0604 µM (active); in the assay with SK-MEL-2 it was 0.0366 µM (active); in the assay with SK-OV-3, 0.608 µM (active); with U-251, 0.0385 µM (active); with UACC-62 it was 0.0273 µM (active).

On to `Cc1c(Cl)ccc2c1NC(=O)C2(O)C(C(=O)c1ccccc1)c1ccccc1` (centres undefined), for which the GI50 is 32.4 µM (inactive) in the assay on 786-0; 98.2 µM (inactive) with A549; > 100 µM (inactive) with COLO 205; 13.2 µM (inactive) in the assay with HL-60; 29.9 µM (inactive) in the assay on HT-29; 4.98 µM (inactive) with NCI-H23. The GI50 was 64.9 µM (inactive) in the assay on NCI-H460; 32.7 µM (inactive) with OVCAR-5; 62.7 µM (inactive) in the assay with SF-268; 36.5 µM (inactive) in the assay with SF-295; > 100 µM (inactive) in the assay on SK-MEL-2; > 100 µM (inactive) in the assay with SK-OV-3. The GI50 with U-251 was 34.8 µM (inactive); in the assay on UACC-62, 19.5 µM (inactive).

With `C#C[C@@H](CCCC)OC(=O)N[C@H](C)c1ccccc1`, the GI50 with 786-0 was 59.6 µM (inactive); with A549, 6.82 µM (inactive); in the assay with COLO 205 it was 2.45 µM (inactive); in the assay on HL-60 it was 15.3 µM (inactive); with HT-29 it was 40.3 µM (inactive); with NCI-H23 it was 1.91 µM (inactive). The GI50 was 56.6 µM (inactive) in the assay on NCI-H460; 33 µM (inactive) in the assay on OVCAR-5; 2.17 µM (inactive) with SF-268; 77.1 µM (inactive) in the assay on SF-295; 23.4 µM (inactive) with SK-MEL-2; > 100 µM (inactive) in the assay with SK-OV-3. In addition, the GI50 in the assay with U-251 is 37.4 µM (inactive); in the assay on UACC-62, 4.98 µM (inactive).

As for `CCOC(=O)COc1ccc(OCC(=O)OCC)c2c1C(=O)CCCC2=O`, the GI50 in the assay with 786-0, with A549, with COLO 205, in the assay with HL-60, in the assay on HT-29 and in the assay on NCI-H23 was > 100 µM (inactive) each time. The GI50 in the assay with NCI-H460, in the assay with OVCAR-5, in the assay on SF-268, with SF-295, in the assay on SK-MEL-2 and with SK-OV-3 was > 100 µM (inactive) each time. Further, the GI50 in the assay with U-251 and in the assay with UACC-62 was > 100 µM (inactive) in each case.

As to `CCCCCCCCCCCC(=O)OCCOCCOCCOCCOCCOCc1ccccc1`, the GI50 in the assay on 786-0 is > 100 µM (inactive); with A549, > 100 µM (inactive); in the assay with COLO 205 it was > 100 µM (inactive); with HL-60, 34.4 µM (inactive); in the assay on HT-29 it was > 100 µM (inactive); with NCI-H23, > 100 µM (inactive). The GI50 in the assay on NCI-H460, with OVCAR-5, with SF-268, in the assay with SF-295, in the assay with SK-MEL-2 and with SK-OV-3 was > 100 µM (inactive) in each case. Moreover, the GI50 in the assay with U-251 and with UACC-62 was > 100 µM (inactive) each time.

With `CC1(C)OCC(COC(=O)C=[N+]=[N-])O1` (centres undefined), the GI50 was > 100 µM (inactive) with 786-0; > 100 µM (inactive) with COLO 205; > 100 µM (inactive) in the assay with HL-60; > 100 µM (inactive) with HT-29; 46.5 µM (inactive) in the assay on MCF7; > 100 µM (inactive) in the assay on MDA-MB-231. The GI50 in the assay on MDA-MB-435 was > 100 µM (inactive); in the assay on NCI-H23, > 100 µM (inactive); in the assay on NCI-H460, 13.2 µM (inactive); in the assay with OVCAR-5 it was > 100 µM (inactive); in the assay with PC-3, > 100 µM (inactive); in the assay with SF-268, > 100 µM (inactive). Moreover, the GI50 with SF-295, in the assay with SK-MEL-2, with SK-OV-3, in the assay with U-251 and in the assay on UACC-62 was > 100 µM (inactive) in each case.

Regarding `C=CCc1ccc(Oc2cc(CC=C)c3c(c2O)O[C@@H](CO)[C@H]3c2ccc(O)c(-c3cc(CC=C)ccc3O)c2)cc1`, the GI50 was 54 µM (inactive) in the assay on 786-0; > 100 µM (inactive) in the assay on A549; 52 µM (inactive) in the assay with COLO 205; 23.8 µM (inactive) with HL-60; 23.4 µM (inactive) with HT-29; 47.3 µM (inactive) with NCI-H23. For the same compound, the GI50 was 24 µM (inactive) in the assay with NCI-H460; > 100 µM (inactive) in the assay on OVCAR-5; 58.7 µM (inactive) in the assay on SF-268; 67.1 µM (inactive) with SF-295; 24.3 µM (inactive) with SK-MEL-2; > 100 µM (inactive) in the assay on SK-OV-3. Besides, the values for the GI50 in the assay with U-251 and in the assay on UACC-62 were 23.1 µM (inactive) and 30.1 µM (inactive), respectively.

Consider `Cc1ccc(NC(=O)C(=O)Cc2cccc[n+]2[O-])cc1C`, for which the GI50 in the assay on 786-0, in the assay with A549, with COLO 205, in the assay with HL-60, in the assay with HT-29 and with NCI-H23 was > 100 µM (inactive) in each case. In addition, the GI50 in the assay on NCI-H460, in the assay on OVCAR-5, in the assay with SF-268, in the assay on SF-295, in the assay with SK-MEL-2 and in the assay on SK-OV-3 was > 100 µM (inactive) throughout. The GI50 with U-251 and in the assay on UACC-62 was > 100 µM (inactive) in each case.

These data come from ChEMBL document CHEMBL1201862, “PubChem BioAssay data set” (2004).
